The values below come from patent publication US6323186A, “Phosphate-bound polyazaindacene derivatives of nucleotides” (Molecular Probes, Inc., priority 2000, dated 2001).

The data set in a line: Relative quantum yield determination for labeled nucleotides. In kind it is physicochemical. The text has this: […] The concentration of this solution is matched with that of a solution of Compound 2 in the same solvent by matching the optical density (OD) at the absorption wavelength maximum, which is 504 nm for both samples.
Where [1] appears, read: in methanol, relative to reference fluorophore.
Where [2] appears, read: pH 9 phosphate buffer, OD matched at absorption maximum, excited at λmax, reference 4,4-difluoro-5,7-dimethyl-4-bora-3a,4a-diaza-s-indacene-3-propionic acid.
The mark [3] stands for this setting: pH 9 phosphate buffer, relative to reference fluorophore.

`Cc1cc(C)n2c1C=C1C=CC(CNC(=O)CSP(=O)(O)OP(=O)(O)OP(=O)(O)OC[C@H]3O[C@@H](n4cnc5c(=O)[nH]c(N)nc54)[C@H](O)[C@@H]3O)=[N+]1[B-]2(F)F` [Compound 2]: the fluorescence quenched by setting is: under setting [1], 41%; under setting [3], 89%. Also, the “fluorescence yield relative to reference fluorophore” value by setting is: under setting [1], 59%; under setting [2], 11%.
As for `Nc1nc2c(ncn2[C@@H]2O[C@H](COP(=O)(O)OP(=O)(O)OP(=O)(O)SCC(=O)NCCCCCNC(=O)COc3ccc(C4=[N+]5C(=Cc6ccc(-c7cccs7)n6[B-]5(F)F)C=C4)cc3)[C@@H](O)[C@H]2O)c(=O)[nH]1` [Compound 4], the fluorescence quenched reads like this: under setting [1], 25%; under setting [3], 90.9%. For the same compound, the “fluorescence yield relative to reference fluorophore” value was found to be 75% under setting [1] and 9.1% under setting [2].
